Reference: patent US20260294890A1, “LONG-TERM PREVENTION AND/OR TREATMENT OF A DISEASE BY SLO-1 INHIBITORS” (Elanco Animal Health GmbH, priority 2023, published 2026)

Experiment: Assay 1: half-life and plasma clearance upon intravenous administration to beagle dogs
Type: in vivo
Settings: iv dose up to 0.3 mg/kg, Phoenix PK/PD (Example 1: internal tool); for clearance / half-life: dog, geometric mean; for half-life: read-out: Half-life (h/Form) iv, geometric mean (converted)
Protocol: Assay 1: Determination of Half-Life and Plasma Clearance of Compounds of the Invention Upon Administration to Beagle Dogs
Compounds according to the invention were administered as an intravenous (iv) dose (up to 0.3 mg/kg) to beagle dogs (minimum n=3). Blood samples were collected from these beagle dogs up to 168 h after intravenous administration and up to 3024 h after subcutaneous administration. A portion of each whole blood sample was processed to plasma. Compound concentrations were determined in plasma using LCMS/MS. Phoenix™ Pharmacokinetic and Pharmacodynamic (PK/PD) was used to determine half-life and plasma clearance values. Only for Example 1, an internal tool available to the inventors was used to determine the half-life and plasma clearance values.

| Compound | clearance (plasma) [mL/min/kg] | half-life (plasma) [h] | Plasma Clearance, geometric mean [mL/min/kg] | Half-life (h/Form) iv, geometric mean (plasma) [h] |
| --- | --- | --- | --- | --- |
| CCc1c(C(=O)N[C@H]2CCOc3ccccc32)cnc2c(-c3cc(F)cc(F)c3F)c(F)ccc12 [Example 1, N-[(4S)-3,4-Dihydro-2H-chromen-4-yl]-4-ethyl-7-fluoro-8-(2,3,5-trifluorophenyl)quinoline-3-carboxamide] | 10 | 52 | – | – |
| Cc1nn2c(C(C)C)c(C(=O)N[C@H]3CCc4ccccc43)cnc2c1-c1cc(Cl)c(F)c(Cl)c1 [Example 2, (S)-3-(3,5-dichloro-4-fluorophenyl)-N-(2,3-dihydro-1H-inden-1-yl)-7-isopropyl-2-methylpyrazolo[1,5-a]pyrimidine-6-carboxamide] | 2.33 | 19 | – | – |
| Cc1nn2c(C(C)C)c(C(=O)N[C@H]3CCOc4ccccc43)cnc2c1-c1ccc(F)c(F)c1 [Example 3, (S)—N-(chroman-4-yl)-3-(3,4-difluorophenyl)-7-isopropyl-2-methylpyrazolo[1,5-a]pyrimidine-6-carboxamide] | 3 | 37.4 | – | – |
| O=C(N[C@H]1CCOc2ccccc21)c1cnc2c(-c3cc(Cl)cc(Cl)c3)c(F)ccc2c1N1CC(F)C1 [Example 5, (S)—N-(chroman-4-yl)-8-(3,5-dichlorophenyl)-7-fluoro-4-(3-fluoroazetidin-1-yl)quinoline-3-carboxamide] | 1.17 | 160 | – | – |
| O=C(N[C@H]1CCOc2ccccc21)c1cnc2c(-c3cc(F)cc(F)c3F)c(F)ccc2c1C1CS(=O)(=O)C1 [Example 8, N-[(4S)-3,4-dihydro-2H-chromen-4-yl]-4-(1,1-dioxidothietan-3-yl)-7-fluoro-8-(2,3,5-trifluorophenyl)quinoline-3-carboxamide] | 11.5 | 43.6 | – | – |
| Cc1nn2c(C(C)C)c(C(=O)N[C@H]3CCOc4ccccc43)cnc2c1-c1c(F)cccc1Cl [Example 10, (S)-3-(2-chloro-6-fluorophenyl)-N-(chroman-4-yl)-7-isopropyl-2-methylpyrazolo[1,5-a]pyrimidine-6-carboxamide] | 6.17 | 24.7 | – | – |
| O=C(N[C@H]1CCOc2ccccc21)c1cnc2c(-c3cc(F)cc(F)c3F)cccc2c1C1COC1 [Example 11, (S)—N-(chroman-4-yl)-4-(oxetan-3-yl)-8-(2,3,5-trifluorophenyl)quinoline-3-carboxamide] | 5 | 47.8 | – | – |
| O=C(N[C@H]1CCOc2ccccc21)c1cnc2c(-c3cc(F)cc(F)c3F)cccc2c1C1CCOCC1 [Example 12, N-[(4S)-3,4-Dihydro-2H-chromen-4-yl]-4-(tetrahydro-2H-pyran-4-yl)-8-(2,3,5-trifluorophenyl)quinoline-3-carboxamide] | 17 | 21.4 | – | – |
| O=C(N[C@H]1CCOc2ccccc21)c1cnc2c(-c3cc(F)cc(F)c3F)c(F)ccc2c1C1CCOCC1 [Example 14] | 3 | 43.4 | – | – |
| (S)—N-(2,3-Dihydro-1H-inden-1-yl)-3-(3-fluorophenyl)-7-isopropyl-2-methylpyrazolo[1,5-a]pyrimidine-6-carboxamide [Example 13] | – | – | 9.33 | 45.43 |
